For orientation: MIC means the smallest concentration in the dilution series that meets the test's criterion for growth inhibition.

Type in all cases: cell-based
One experiment concerns Staph. aureus ATCC 6538P. The experiment can be described thus: antimicrobial activity (MIC), Table II. Conditions: Staphylococcus aureus, ATCC6538P.
A further experiment relates to B. subtilis ATCC 6633. The experiment can be described thus: antimicrobial activity (MIC), Table II. The following applies: Bacillus subtilis, ATCC6633; B. subtilis ATCC 6633; read-out: MIC.
The subject of the next experiment is Staph. aureus KC-11. The experiment can be described thus: antimicrobial activity (MIC), Table II. Conditions: Staphylococcus aureus, KC11; Staph. aureus KC-11; read-out: MIC.
In another experiment the test system is B. cereus. Description: antimicrobial activity (MIC), Table II. The following applies: Bacillus cereus; B. cereus; read-out: MIC.
For experiment [1], the system named is Staph. epidermidis IID 866. Description: antimicrobial activity (MIC), Table II. The following applies: Staphylococcus epidermidis, IID866.
Another experiment deals with Staph. aureus 226. The experiment can be described thus: antimicrobial activity (MIC), Table II. The following applies: Staphylococcus aureus.
Another experiment concerns Staph. aureus 193. The experiment can be described thus: antimicrobial activity (MIC), Table I. Conditions: Staphylococcus aureus; Staph. aureus 193; read-out: MIC.
In another experiment the test system is B. subtilis NRRL B-558. The experiment can be described thus: antimicrobial activity (MIC), Table I. The following applies: Bacillus subtilis, NRRLB558; B. subtilis NRRL B-558; read-out: MIC.
The subject of the next experiment is E. coli K-12 ML 1410. The experiment can be described thus: antimicrobial activity (MIC), Table I. Conditions: Escherichia coli, K12ML1410; E. coli K-12 ML 1410; read-out: MIC.
The test system of experiment [2] is Shigella dysenteriae JS 11910. Description: antimicrobial activity (MIC), Table I. Conditions: JS11910.
In another experiment the test system is Sal. enteritidis 1891. Description: antimicrobial activity (MIC), Table I. The following applies: Salmonella enterica; Sal. enteritidis 1891; read-out: MIC.
For the next experiment, the system named is Sarcina lutea PCI 1001. Description: antimicrobial activity (MIC), Table I. The following applies: Micrococcus luteus, PCI1001; Sarcina lutea PCI 1001; read-out: MIC.
The test system of a further experiment is E. coli NIHJ. Description: antimicrobial activity (MIC), Table I. Conditions: Escherichia coli; E. coli NIHJ; read-out: MIC.
The next experiment has as its system Kleb. pneumoniae PCI 602. The experiment can be described thus: antimicrobial activity (MIC), Table I. Conditions: Klebsiella pneumoniae, PCI602; Kleb. pneumoniae PCI 602; read-out: MIC.
A further experiment relates to Staph. aureus 209 P. The experiment can be described thus: antimicrobial activity (MIC), Table I. Conditions: Staphylococcus aureus; Staph. aureus 209 P; read-out: MIC.
The next experiment has as its system Staph. aureus MS 9861. Description: antimicrobial activity (MIC), Table I. The following applies: Staphylococcus aureus, MS9861; Staph. aureus MS 9861; read-out: MIC.
The next experiment relates to Coryn. bovis 1810. Description: antimicrobial activity (MIC), Table I. The following applies: Corynebacterium bovis; Coryn. bovis 1810; read-out: MIC.
Another experiment concerns E. coli K-12. Description: antimicrobial activity (MIC), Table I. The following applies: Escherichia coli, K12; E. coli K-12; read-out: MIC.
Another experiment relates to Pro. vulgaris OX-19. Description: antimicrobial activity (MIC), Table I. Conditions: Proteus vulgaris, OX19; Pro. vulgaris OX-19; read-out: MIC.
Another experiment deals with E. coli K-12 R-5. The experiment can be described thus: antimicrobial activity (MIC), Table I. The following applies: Escherichia coli, K12R5; E. coli K-12 R-5; read-out: MIC.
Experiment [3] has as its system Staph. epidermidis IID 886. Description: antimicrobial activity (MIC), Table II. The following applies: Staphylococcus epidermidis, IID886.
Setting [4] is: Staph. aureus ATCC 6538P, read-out: MIC.
[5] abbreviates: Staph. aureus 226, read-out: MIC.

Structures are written as SMILES. In brackets after ≈: the same amount, converted by molar mass. Read-outs that look alike come from different tables or passages of the source.

For `CCC1OC(=O)CC(O)C(C)C(OC2OC(C)CC(N(C)C)C2O)C(CC=O)CC(C)C(=O)C=CC(C)=CC1CN(CC)C(=O)c1cccnc1` (stereo not shown) [Example 46, 23,4'-dideoxy-23-N-nicotinoylethylaminomycaminosyl tylonolide], the minimal inhibitory concentration (MIC) in the experiment with Staph. aureus ATCC 6538P (setting [4]) was 1.56 µg/mL (≈ 2.19 µM); with B. subtilis ATCC 6633, 1.56 µg/mL (≈ 2.19 µM); in the experiment with Staph. aureus KC-11 it was 1.56 µg/mL (≈ 2.19 µM); in the experiment on B. cereus it was 0.39 µg/mL (≈ 0.546 µM); in [1], 0.78 µg/mL (≈ 1.09 µM); in the experiment on Staph. aureus 226 (setting [5]), 1.56 µg/mL (≈ 2.19 µM).

Turning to `CCC1OC(=O)CC(O)C(C)C(OC2OC(C)C(O)C(N(C)C)C2O)C(CC=O)CC(C)C(=O)C=CC(C)=CC1CN1CCCCCC1` (stereo not shown) [Example 24, 23-deoxy-23-hexamethyleneiminomycaminosyl tylonolide], the MIC in the experiment with Staph. aureus ATCC 6538P is 0.39 µg/mL (≈ 0.574 µM); with B. subtilis ATCC 6633 it was 0.78 µg/mL (≈ 1.15 µM); in the experiment on Staph. aureus KC-11, 0.78 µg/mL (≈ 1.15 µM); in the experiment on B. cereus it was 0.39 µg/mL (≈ 0.574 µM); in experiment [1], 0.39 µg/mL (≈ 0.574 µM); with Staph. aureus 226 (226), not above 0.2 µg/mL.

As to `CCC1OC(=O)CC(O)C(C)C(OC2OC(C)CC(N(C)C)C2O)C(CC=O)CC(C)C(=O)C=CC(C)=CC1CN1CCCCC1` (stereo not shown) [Example 17, 23,4'-dideoxy-23-piperidinomycaminosyl tylonolide], the MIC was 0.78 µg/mL (≈ 1.2 µM) in the experiment with Staph. aureus 193; 0.39 µg/mL (≈ 0.601 µM) in the experiment on B. subtilis NRRL B-558; 0.78 µg/mL (≈ 1.2 µM) with E. coli K-12 ML 1410; less than 0.2 µg/mL in [2]; 0.39 µg/mL (≈ 0.601 µM) in the experiment on Sal. enteritidis 1891; less than 0.2 µg/mL in the experiment on Sarcina lutea PCI 1001. Also, the minimal inhibitory concentration (MIC) with E. coli NIHJ was 0.78 µg/mL (≈ 1.2 µM); in the experiment on Kleb. pneumoniae PCI 602 it was 1.56 µg/mL (≈ 2.4 µM); with Staph. aureus 209 P it was 0.39 µg/mL (≈ 0.601 µM); in the experiment with Staph. aureus MS 9861 it was 1.56 µg/mL (≈ 2.4 µM); in the experiment with Coryn. bovis 1810, less than 0.2 µg/mL; with E. coli K-12, 3.12 µg/mL (≈ 4.81 µM). Also, the values for the minimal inhibitory concentration (MIC) in the experiment with Pro. vulgaris OX-19 and in the experiment on E. coli K-12 R-5 were 0.78 µg/mL (≈ 1.2 µM) and 1.56 µg/mL (≈ 2.4 µM), respectively.

With `CCC1OC(=O)CC(O)C(C)C(OC2OC(C)CC(N(C)C)C2O)C(CC=O)CC(C)C(=O)C=CC(C)=CC1COC(=O)CN1CCCC1` (stereo not shown) [Example 52, 23-O-pyrrolidinoacetyl-4'-deoxymycaminosyl tylonolide], the MIC with Staph. aureus ATCC 6538P (setting [4]) was found to be 0.78 µg/mL (≈ 1.13 µM); in the experiment on B. subtilis ATCC 6633, 1.56 µg/mL (≈ 2.25 µM); in the experiment with Staph. aureus KC-11, 0.78 µg/mL (≈ 1.13 µM); in the experiment with B. cereus, 1.56 µg/mL (≈ 2.25 µM); in experiment [1] it was 0.78 µg/mL (≈ 1.13 µM); in the experiment on Staph. aureus 226 (setting [5]), 0.78 µg/mL (≈ 1.13 µM).

For `CCC(=O)N(CC)CC1C=C(C)C=CC(=O)C(C)CC(CC=O)C(OC2OC(C)C(O)C(N(C)C)C2O)C(C)C(O)CC(=O)OC1CC` (stereo not shown) [Example 42, 23-deoxy-23-N-ethylpropionylaminomycaminosyl tylonolide], the MIC was found to be 0.78 µg/mL (≈ 1.15 µM) in the experiment with Staph. aureus ATCC 6538P (setting [4]); 0.78 µg/mL (≈ 1.15 µM) in the experiment with B. subtilis ATCC 6633; 1.56 µg/mL (≈ 2.29 µM) with Staph. aureus KC-11; 0.39 µg/mL (≈ 0.573 µM) in the experiment on B. cereus; 0.78 µg/mL (≈ 1.15 µM) in experiment [1]; 0.78 µg/mL (≈ 1.15 µM) in the experiment with Staph. aureus 226 (setting [5]).

Take `CCC1OC(=O)CC(O)C(C)C(OC2OC(C)C(O)C(N(C)C)C2O)C(CC=O)CC(C)C(=O)C=CC(C)=CC1CN1CCCC(C)C1` (stereo not shown) [Example 88, 23-deoxy-23-(3-methylpiperidino)mycaminosyl tylonolide]: the minimum inhibitory concentration (MIC) amounted to 0.78 µg/mL (≈ 1.15 µM) with Staph. aureus ATCC 6538P (setting [4]); 0.78 µg/mL (≈ 1.15 µM) with B. subtilis ATCC 6633; 0.78 µg/mL (≈ 1.15 µM) in the experiment with Staph. aureus KC-11; 0.78 µg/mL (≈ 1.15 µM) in the experiment with Staph. aureus 226 (setting [5]); 0.39 µg/mL (≈ 0.574 µM) in [3].

With `CCC1OC(=O)CC(O)C(C)C(OC2OC(C)CC(N(C)C)C2O)C(CC=O)CC(C)C(=O)C=CC(C)=CC1CNC(C)C` (stereo not shown) [Example 21, 23,4'-dideoxy-23-isopropylaminomycaminosyl tylonolide], the MIC in the experiment with Staph. aureus ATCC 6538P (setting [4]) was found to be 0.78 µg/mL (≈ 1.25 µM); in the experiment with B. subtilis ATCC 6633, 0.78 µg/mL (≈ 1.25 µM); in the experiment on Staph. aureus KC-11, 0.78 µg/mL (≈ 1.25 µM); with B. cereus, 0.39 µg/mL (≈ 0.626 µM); in experiment [1] it was 0.78 µg/mL (≈ 1.25 µM); in the experiment on Staph. aureus 226 (setting [5]) it was 0.78 µg/mL (≈ 1.25 µM).

Source of the values: patent US4477443A, “Tylosin derivatives, their preparation and pharmaceutical compositions containing them” (Zaidan Hojin Biselbutsu Kagaku Kenkyu Kai (Microbial …, priority 1981, dated 1984).
